Test results published in patent publication US20230406860A1, “HETEROCYCLIC SPIRO COMPOUNDS AND METHODS OF USE” (AMGEN INC., priority 2020, published 2023).
Where two headings read alike, the source gives them in different places. Blank lines part the entries; values can stand above or below the molecule they belong to.

Experiments:
[1] = biological target: GDP-bound KRAS protein (aa 1-169), containing both G12C and C118A amino acid substitutions (Homo sapiens, UniProt P01116, C118A/G12C); assay: Coupled nucleotide exchange assay (SOS-mediated, AlphaScreen); assay type: biochemical
Sequence of GDP-bound KRAS protein (aa 1-169), containing both G12C and C118A amino acid substitutions (P01116 1-169 isoform P01116-2 G12C/C118A): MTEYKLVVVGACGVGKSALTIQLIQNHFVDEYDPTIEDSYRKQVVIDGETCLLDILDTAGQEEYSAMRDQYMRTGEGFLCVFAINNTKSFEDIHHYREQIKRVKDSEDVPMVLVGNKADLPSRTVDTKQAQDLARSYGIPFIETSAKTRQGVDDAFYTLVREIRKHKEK
Experimental: Coupled Nucleotide Exchange Assay:
For all subsequent steps, DTT was added to the reaction buffer at a final concentration of 1 mM. […] The assay plates were then read on a plate reader measuring luminescence signal. Signal intensity of compound-containing wells were normalized to DMSO control, and data were analyzed using a 4-parameter logistic model to calculate IC50 values.

[2] = system: MIA PaCa-2 (human pancreatic carcinoma) cells; assay: Cell viability assay (CellTiter-Glo), MIA PaCa-2; assay type: cell-based; settings: 72 h
Experimental: (§1) MIA PaCa-2 (human pancreatic carcinoma; ATCC CRL-1420) or A549 (human lung carcinoma; ATCC CCL-185) cells were cultured in RPMI 1640 medium containing 10% fetal bovine serum and 1× penicillin/streptomycin/L-glutamine. Cells were seeded in 384-well plates at a density of 1.67E+04 cells/mL and incubated at 37° C., 5% CO2, overnight. Serially-diluted compound or DMSO was added to the cells, and plates were incubated at 37° C., 5% CO2 for 72 h. Cell viability was measured using a CellTiter-Glo® Luminescent Cell Viability Assay kit (Promega) according to the manufacturer's protocol. The luminescence signal of treated samples was normalized to DMSO control, and data were analyzed using a 4-parameter logistic model to calculate IC50 values.

[3] = system: A549 (human lung carcinoma) cells; assay: Cell viability assay (CellTiter-Glo), A549; assay type: cell-based; settings: 72 h
Experimental: as §1

[4] = 2 h compound pre-incubation, read-out: Avg 2 h Coupled exchange IC50
[5] = 20 h compound pre-incubation (values marked * in Table 6), read-out: Avg 20 h Coupled exchange IC50

Structure (SMILES): C=CC(=O)N1CC2(CCN(c3nc4c(c(N[C@@H](CC(=O)NC)c5cccc(C#N)c5)n3)CCCC4)C2)C1 (single isomer, unassigned) [Example 1-21-1]
IC50 [1, 4]: 9.085 µM
IC50 [2]: 10.5 µM
IC50 [3]: > 25 µM

Structure (SMILES): C=CC(=O)N1CC2(CCN(c3nc4c(c(N[C@H](CC(=O)NC)c5cccc(C#N)c5)n3)CCCC4)C2)C1 (single isomer, unassigned) [Example 1-21-2]
IC50 [1, 4]: 129.95 µM
IC50 [2]: 14 µM
IC50 [3]: > 25 µM

Structure (SMILES): C=CC(=O)N1CC2(C[C@H](CO)N(c3nc4c(c(N[C@H](CC(=O)NC)CC(C)C)n3)CCCC4)C2)C1 (single isomer, unassigned) [Example 1-24-1]
IC50 [1, 4]: 4.58 µM
IC50 [2]: 5.99 µM
IC50 [3]: > 25 µM

Structure (SMILES): C=CC(=O)N1CC2(C[C@@H](CO)N(c3nc4c(c(N[C@H](CC(=O)NC)CC(C)C)n3)CCCC4)C2)C1 (single isomer, unassigned) [Example 1-24-2]
IC50 [1, 4]: 59.1 µM
IC50 [2]: > 25 µM
IC50 [3]: > 25 µM

Structure (SMILES): C=CC(=O)N1CC2(CCN(c3nc4c(c(N[C@H](CC(=O)NC)CC(C)C)n3)CCCC4)C2)C1 [Example 1-1, (S)-3-((2-(2-acryloyl-2,6-diazaspiro[3.4]octan-6-yl)-5,6,7,8-tetrahydroquinazolin-4-yl)amino)-N,5-dimethylhexanamide]
IC50 [1, 4]: 0.702 µM
IC50 [2]: 0.887 µM
IC50 [3]: > 25 µM

Structure (SMILES): C=CC(=O)N1CC2(C1)CN(c1nc3c(c(N[C@H](CC(=O)NC)CC(C)C)n1)CCC(C)C3)CC2(F)F (stereo partly drawn) [Example 1-2, (3S)-3-((2-(8,8-difluoro-2-(2-propenoyl)-2,6-diazaspiro[3.4]octan-6-yl)-7-methyl-5,6,7,8-tetrahydro-4-quinazolinyl)amino)-N,5-dimethylhexanamide]
IC50 [1, 4]: 0.019 µM
IC50 [2]: 0.047 µM
IC50 [3]: 15.1 µM

Structure (SMILES): C=CC(=O)N1CC2(CCN(c3nc4c(c(N[C@H](CC(=O)NC)CC(C)C)n3)CCC(C)C4)C2)C1 (stereo partly drawn) [Example 1-3, (3S)-N,5-dimethyl-3-((7-methyl-2-(2-(2-propenoyl)-2,6-diazaspiro[3.4]octan-6-yl)-5,6,7,8-tetrahydro-4-quinazolinyl)amino)hexanamide]
IC50 [1, 4]: 0.216 µM
IC50 [2]: 0.217 µM
IC50 [3]: 32.6 µM

Structure (SMILES): C=CC(=O)N1CC2(CCN(c3nc4c(c(N[C@H](CC(=O)NC)CC(C)C)n3)CCC4)C2)C1 [Example 1-4, (3S)-N,5-dimethyl-3-((2-(2-(2-propenoyl)-2,6-diazaspiro[3.4]octan-6-yl)-6,7-dihydro-5H-cyclopenta[d]pyrimidin-4-yl)amino)hexanamide]
IC50 [1, 4]: 2.37 µM
IC50 [2]: 2.59 µM
IC50 [3]: > 5 µM

Structure (SMILES): C=CC(=O)N1CC2(CCN(c3nc(N[C@H](CC(=O)NC)CC(C)C)c4ccccc4n3)C2)C1 [Example 1-5, (3S)-N,5-dimethyl-3-((2-(2-(2-propenoyl)-2,6-diazaspiro[3.4]octan-6-yl)-4-quinazolinyl)amino)hexanamide]
IC50 [1, 4]: 1.1 µM
IC50 [2]: 1.23 µM
IC50 [3]: 18.4 µM

Structure (SMILES): C=CC(=O)N1CC2(CCN(c3cc4ccccc4c(N[C@H](CC(=O)NC)CC(C)C)n3)C2)C1 [Example 1-6, (3S)-N,5-dimethyl-3-((3-(2-(2-propenoyl)-2,6-diazaspiro[3.4]octan-6-yl)-1-isoquinolinyl)amino)hexanamide]
IC50 [1, 5]: 0.424 µM
IC50 [2]: 8.21 µM
IC50 [3]: > 25 µM

Structure (SMILES): C=CC(=O)N1CC2(CCN(c3nc(N[C@H](CC(=O)NC)CC(C)C)c4occc4n3)C2)C1 [Example 1-7, (3S)-N,5-dimethyl-3-((2-(2-(2-propenoyl)-2,6-diazaspiro[3.4]octan-6-yl)furo[3,2-d]pyrimidin-4-yl)amino)hexanamide]
IC50 [1, 5]: 0.494 µM
IC50 [2]: 58.1 µM
IC50 [3]: > 5 µM

Structure (SMILES): C=CC(=O)N1CC2(CCN(c3nc(N[C@H](CC(=O)NC)CC(C)C)c4c(n3)[C@H](C)CCC4)C2)C1 [Example 1-8, (3S)-N,5-dimethyl-3-(((8R)-8-methyl-2-(2-(2-propenoyl)-2,6-diazaspiro[3.4]octan-6-yl)-5,6,7,8-tetrahydro-4-quinazolinyl)amino)hexanamide]
IC50 [1, 4]: 1.1 µM
IC50 [2]: 1 µM
IC50 [3]: > 5 µM

Structure (SMILES): C=CC(=O)N1CC2(CCN(c3nc4c(c(N[C@H](CC(=O)NC)CC(C)C)n3)CN(C(C)=O)C4)C2)C1 [Example 1-9, (3S)-3-((6-acetyl-2-(2-(2-propenoyl)-2,6-diazaspiro[3.4]octan-6-yl)-6,7-dihydro-5H-pyrrolo[3,4-d]pyrimidin-4-yl)amino)-N,5-dimethylhexanamide]
IC50 [1, 5]: 0.472 µM
IC50 [2]: > 5 µM
IC50 [3]: > 5 µM

Structure (SMILES): C=CC(=O)N1CC2(CCN(c3nc(N[C@H](CC(=O)NC)CC(C)C)c4nn(C)cc4n3)C2)C1 [Example 1-10, (3S)-N,5-dimethyl-3-((2-methyl-5-(2-(2-propenoyl)-2,6-diazaspiro[3.4]octan-6-yl)-2H-pyrazolo[4,3-d]pyrimidin-7-yl)amino)hexanamide]
IC50 [1, 4]: 0.916 µM
IC50 [2]: 3.63 µM
IC50 [3]: > 25 µM

Structure (SMILES): C=CC(=O)N1CC2(CCN(c3nc(N[C@H](CC(=O)NC)CC(C)C)c4ncsc4n3)C2)C1 [Example 1-11, (3S)-N,5-dimethyl-3-((5-(2-(2-propenoyl)-2,6-diazaspiro[3.4]octan-6-yl)[1,3]thiazolo[5,4-d]pyrimidin-7-yl)amino)hexanamide]
IC50 [1, 5]: 0.395 µM
IC50 [2]: > 5 µM
IC50 [3]: > 5 µM

Structure (SMILES): C=CC(=O)N1CC2(CCN(c3nc4c(c(N[C@H](CC5=NC(C)(C)C(=O)N5)CC(C)C)n3)CCCC4)C2)C1 [Example 1-12, 5,5-dimethyl-2-((2S)-4-methyl-2-((2-(2-(2-propenoyl)-2,6-diazaspiro[3.4]octan-6-yl)-5,6,7,8-tetrahydro-4-quinazolinyl)amino)pentyl)-3,5-dihydro-4H-imidazol-4-one]
IC50 [1, 4]: 3.93 µM
IC50 [2]: 10.5 µM
IC50 [3]: > 25 µM

Structure (SMILES): C=CC(=O)N1CC2(CCN(c3nc4c(c(N[C@H](CC(=O)NC)CC(C)C)n3)COC4)C2)C1 [Example 1-13, (3S)-N,5-dimethyl-3-((2-(2-(2-propenoyl)-2,6-diazaspiro[3.4]octan-6-yl)-5,7-dihydrofuro[3,4-d]pyrimidin-4-yl)amino)hexanamide]
IC50 [1, 5]: 5.85 µM
IC50 [2]: > 5 µM
IC50 [3]: > 5 µM

Structure (SMILES): C=CC(=O)N1CC2(CCN(c3nc(N[C@H](CC(=O)NC)CC(C)C)c4c(ncn4C)n3)C2)C1 [Example 1-14, (3S)-N,5-dimethyl-3-((7-methyl-2-(2-(2-propenoyl)-2,6-diazaspiro[3.4]octan-6-yl)-7H-purin-6-yl)amino)hexanamide]
IC50 [1, 4]: 196 µM
IC50 [2]: > 25 µM
IC50 [3]: > 25 µM

IC50 [2]: 0.031 µM
IC50 [3]: > 25 µM
Structure (SMILES): C=CC(=O)N1CC2(CCN(c3nc4c(c(N[C@H](CC(=O)NC)CC(C)C)n3)CCC(C)(C)C4)C2)C1 [Example 1-29, (3S)-3-((7,7-dimethyl-2-(2-(2-propenoyl)-2,6-diazaspiro[3.4]octan-6-yl)-5,6,7,8-tetrahydro-4-quinazolinyl)amino)-N,5-dimethylhexanamide]

IC50 [2]: 0.485 µM
IC50 [3]: 14.1 µM
Structure (SMILES): C=CC(=O)N1CC2(CCN(c3nc4c(c(N[C@@H](CC(C)C)Cn5ccnn5)n3)CCC(C)(C)C4)C2)C1 [Example 1-47, 1-(6-(7,7-dimethyl-4-(((2S)-4-methyl-1-(1H-1,2,3-triazol-1-yl)-2-pentanyl)amino)-5,6,7,8-tetrahydro-2H-quinazolinyl)-2,6-diazaspiro[3.4]octan-2-yl)-2-propen-1-one]
